Data reported in the NIST ThermoML archive (doi:10.1021/acs.jced.7b00717).
± gives the expanded uncertainty stated by the source.

Assays:
[1] = xn = mol fraction of the nth substance listed; settings: Liquid, dynamic ligfht scattering
[2] = refractive index (other wavelength) (dimensionless); xn = mol fraction of the nth substance listed; settings: Liquid, Wavelength=532 nm

OCC(O)CO [glycerol] + O
[1]
Settings	binary diffusion coefficient [m2/s]
322.99 K, x1 = 0.5	2.54e-10
323.07 K, x1 = 0.699	1.4e-10
323.15 K, x1 = 0.299	5.6e-10
347.98 K, x1 = 0.5	5.69e-10
348.19 K, x1 = 0.299	1.04e-09
351.63 K, x1 = 0.699	3.69e-10
372.92 K, x1 = 0.699	6.93e-10
373.17 K, x1 = 0.5	1.04e-09
373.3 K, x1 = 0.299	1.73e-09
397.7 K, x1 = 0.699	1.45e-09
398.05 K, x1 = 0.299	2.84e-09
398.12 K, x1 = 0.5	1.9e-09
422.61 K, x1 = 0.299	4.12e-09
423.15 K, x1 = 0.5	2.87e-09
448.21 K, x1 = 0.5	4.8e-09

[2]
Settings	refractive index
295.65 K, Standard Abbe refractometry, x1 = 0.299	1.422 ± 0.001
296.15 K, beam displacement method, x1 = 0.699	1.461 ± 0.005
314.15 K, Standard Abbe refractometry, x1 = 0.299	1.42 ± 0.001
322.99 K, beam displacement method, x1 = 0.5	1.436 ± 0.005
323.15 K, beam displacement method, x1 = 0.299	1.417 ± 0.005
331.65 K, Standard Abbe refractometry, x1 = 0.299	1.415 ± 0.001
347.96 K, beam displacement method, x1 = 0.5	1.43 ± 0.005
348.15 K, beam displacement method, x1 = 0.299	1.411 ± 0.005
348.45 K, beam displacement method, x1 = 0.699	1.445 ± 0.005
373.05 K, beam displacement method, x1 = 0.699	1.438 ± 0.005
373.16 K, beam displacement method, x1 = 0.299	1.403 ± 0.005
373.23 K, beam displacement method, x1 = 0.5	1.423 ± 0.005
398.11 K, beam displacement method, x1 = 0.5	1.417 ± 0.005
398.15 K, beam displacement method, x1 = 0.299	1.396 ± 0.005
398.25 K, beam displacement method, x1 = 0.699	1.431 ± 0.005
421.85 K, beam displacement method, x1 = 0.699	1.424 ± 0.005
423.15 K, beam displacement method, x1 = 0.5	1.409 ± 0.005
